{"source": "patent US20200289520A1", "about": "“COMPOSITION AND METHOD FOR TREATING PERIPHERAL T-CELL LYMPHOMA AND CUTANEOUS T-CELL LYMPHOMA” (Rhizen Pharmaceuticals SA, priority 2017, published 2020)", "key": {"[1]": {"system": "T-cell lymphoma cell lines (Jurkat, MOLT-4, CCRF-CEM, HuT-78, HuT-102, Sez4 and HH)", "assay": "Anti-proliferative effect in T-cell lymphoma cell lines (MTT assay)", "format": "cell-based", "conditions": "48-72 h incubation, FIG. 1", "method": "Compound (A) was tested across a panel of T-cell lymphoma cell lines (Jurkat, MOLT-4, CCRF-CEM, HuT-78, HuT-102, Sez4 and HH). Cells were plated in 96-well plates and incubated with desired concentrations of Compound A for 48-72 h. At the end of the incubation period, MTT ((3-(4,5-dimethylthiazol-2-yl)-2,5-diphenyltetrazolium bromide)) was added. The plate was placed on a shaker for 5 min to mix the formazan and the optical density at 560 nm was measured on a spectrophotometer. Data were plotted using Graphpad prism for calculation of the IC50 concentrations."}, "phospho-AKT (Ser473)": {"system": "phospho-AKT (Ser473)", "assay": "Reduction of pAKT in T-cell lymphoma cell lines (Western blotting)", "format": "cell-based", "conditions": "Western blot normalized to actin, FIG. 2", "method": "AKT, a serine threonine kinase mediates the downstream effects of PI3K activity and modulates several cell processes including survival and growth. Reduction of pAKT by Compound (A) in representative cell lines was determined by Western blotting using a phospho-AKT (Ser^473) antibody. Band intensity was measured and quantified using ImageJ software and normalized to actin."}, "caspase-3": {"system": "caspase-3", "assay": "Induction of caspase 3 in T-lymphoma cell lines", "format": "cell-based", "conditions": "48 h incubation, fluorimetric; FIG. 3", "method": "Cells (Jurkat, MOLT-4, CCRF-CEM, HuT-78 and HuT-102) were incubated with desired concentrations of Compound (A) for 48 h. An equal number of cells per well (0.3×10^6 cells) were used. Increase in apoptosis manifested by an elevation in caspase-3 levels was determined using a Caspase-3 kit from Millipore. Induction of Caspase 3 by Compound A was measured fluorimetrically."}, "pAKT": {"system": "pAKT", "assay": "pAKT in patient-derived primary malignant T cells (Phosphoflow)", "format": "cell-based, human", "conditions": "CTCL donors n=6, 1.5 h incubation then cytokine activation 30 min; FIG. 4", "method": "(§1) The effect of Compound (A) on pAKT in patient-derived primary cells was also studied. Malignant T cells from Cutaneous T-cell Lymphoma (CTCL) patient donors (n=6) were purified using fluorescence-activated cell sorting (FACS) and cultured overnight in RPMI/1% BSA. Cells were incubated with desired concentrations of Compound (A) for 1.5 h followed by activation with a cytokine mixture (20 ng/ml IL2+5 ng/ml IL7+10 ng/ml IL15+10% FBS) for 30 min. pAKT was estimated using Phosphoflow and normalized to total AKT. Data were analyzed using Prism 5.0 software analysis. For apoptosis assays, FACS purified cells from CTCL donors (n=4) were cultured in RPMI/10% FBS+20 ng/ml IL2+5 ng/ml IL7+10 ng/ml IL15 with and without Compound (A), LY294002, or camptothecin for 48 h. Apoptosis was assayed by Annexin V/PI staining."}, "[2]": {"system": "Malignant T cells from Cutaneous T-cell Lymphoma (CTCL) patient donors", "assay": "Apoptosis by Annexin V/PI staining in purified malignant T-cells from CTCL donors", "format": "cell-based, human", "conditions": "CTCL donors n=4, 48 h, FIG. 5", "method": "as §1"}, "[3]": {"system": "MOLT-4 (human T lymphoblast cell line) xenograft", "assay": "MOLT-4 subcutaneous mouse xenograft model", "format": "in vivo", "method": "The anti-tumor effect of Compound (A) was determined in a MOLT-4 (representing human T lymphoblast cell line) subcutaneous mouse xenograft model. Briefly, 10^6 cells were injected into the flank region. Mice were randomized according to body weight into […] groups of five. A week after tumor cell injection, mice either received the vehicle, oral administration of Compound (A) at 50 mg/kg/BID Compound (A), or administration of cytarabine (Ara-C), over an 18-day study period. At the end of the study period, animals were sacrificed and the tumors harvested."}, "[4]": {"system": "relapsed or refractory T-cell lymphoma", "assay": "Phase I/Ib study in patients with relapsed or refractory T-cell lymphoma (PTCL and CTCL)", "format": "in vivo, human", "conditions": "for ORR (objective response rate) / ORR (objective response rate), patients: oral BID", "method": "This is a Phase I/Ib, 3+3 design study in patients with relapsed or refractory T-cell lymphoma\nCompound (A) (tenalisib) was given orally twice a day in 28-day cycles and dose-limiting toxicities (DLTs) were assessed during the first cycle.\nIntra-patient dose escalation was allowed following safety of higher doses. • Primary Objectives: The Safety, Pharmacokinetics (PK), Maximum Tolerated Dose (MTD) • Secondary Objectives: Pharmacodynamics, Overall response rate (ORR), Duration of response (DOR)\nHistologically confirmed T-cell Non-Hodgkin's lymphoma.\nRelapsed after, or refractory to ≥1 prior treatments, and not eligible for transplantation and or approved therapy; ECOG performance status ≤2; patient with measurable or evaluable disease; Adequate organ system function: ANC ≥750/μL; platelets ≥50 K/μL.\nPrior therapy that inhibits PI3K/BTK/mTOR were part of exclusion criteria."}}, "note": "“Also recorded” adds a separate entry of the source.", "data": [{"smiles": "CC[C@H](Nc1ncnc2[nH]cnc12)c1oc2ccccc2c(=O)c1-c1cccc(F)c1", "note": "[Compound (A), (S)-2-(1-((9H-purin-6-yl)amino)propyl)-3-(3-fluorophenyl)-4H-chromen-4-one]", "values": [{"measurement": "proliferation / growth of T-lymphoma cell lines", "setting": "[1]", "result": "dose-dependent reduction in proliferation"}, {"measurement": "endogenous pAKT expression", "setting": "phospho-AKT (Ser473)", "result": "dose-dependent reduction"}, {"measurement": "caspase-3 induction", "setting": "caspase-3", "result": "dose-dependent increase in caspase-3"}, {"measurement": "inhibition of pAKT in purified malignant T-cells", "setting": "pAKT", "result": "dose-dependent inhibition of pAKT"}, {"measurement": "apoptosis in purified malignant T-cells", "setting": "[2]", "result": "dose-dependent increases in apoptosis"}, {"measurement": "tumor growth", "setting": "[3]; 50 mg/kg BID oral, 18-day study period, vs vehicle, FIG. 6", "result": "significantly delayed tumor growth; also recorded: significant delay in tumor growth"}, {"measurement": "tolerability (body weight, adverse effects)", "setting": "[3]; mice, daily dose of 50 mg/kg", "result": "without body weight loss or noticeable adverse effects"}, {"measurement": "CR (complete response)", "setting": "[4]; All, 58 treated/35 evaluable", "result": "(9) %"}, {"measurement": "CR (complete response), patients", "setting": "[4]; All, 58 treated/35 evaluable", "result": 3, "unit": "n"}, {"measurement": "DCR (CR + PR + SD)", "setting": "[4]; All, 58 treated/35 evaluable", "result": 74, "unit": "%"}, {"measurement": "DCR (CR + PR + SD), patients", "setting": "[4]; All, 58 treated/35 evaluable", "result": 26, "unit": "n"}, {"measurement": "PD (progressive disease)", "setting": "[4]; All, 58 treated/35 evaluable", "result": 23, "unit": "%"}, {"measurement": "PD (progressive disease), patients", "setting": "[4]; All, 58 treated/35 evaluable", "result": 8, "unit": "n"}, {"measurement": "PR (partial response)", "setting": "[4]; All, 58 treated/35 evaluable", "result": "(37) %"}, {"measurement": "PR (partial response), patients", "setting": "[4]; All, 58 treated/35 evaluable", "result": 13, "unit": "n"}, {"measurement": "ORR (objective response rate)", "setting": "[4]; All, 58 treated/35 evaluable", "result": "(46) %"}, {"measurement": "ORR (objective response rate), patients", "setting": "[4]; All, 58 treated/35 evaluable", "result": 16, "unit": "n"}, {"measurement": "DCR (CR + PR + SD)", "setting": "[4]; CTCL, 30 treated/20 evaluable", "result": 80, "unit": "%"}, {"measurement": "DCR (CR + PR + SD), patients", "setting": "[4]; CTCL, 30 treated/20 evaluable", "result": 16, "unit": "n"}, {"measurement": "PD (progressive disease)", "setting": "[4]; CTCL, 30 treated/20 evaluable", "result": 20, "unit": "%"}, {"measurement": "PD (progressive disease), patients", "setting": "[4]; CTCL, 30 treated/20 evaluable", "result": 4, "unit": "n"}, {"measurement": "PR (partial response)", "setting": "[4]; CTCL, 30 treated/20 evaluable", "result": "(45) %"}, {"measurement": "PR (partial response), patients", "setting": "[4]; CTCL, 30 treated/20 evaluable", "result": 9, "unit": "n"}, {"measurement": "ORR (objective response rate)", "setting": "[4]; CTCL, 30 treated/20 evaluable", "result": "(45) %"}, {"measurement": "ORR (objective response rate), patients", "setting": "[4]; CTCL, 30 treated/20 evaluable", "result": 9, "unit": "n"}, {"measurement": "CR (complete response)", "setting": "[4]; PTCL, 28 treated/15 evaluable", "result": "(20) %"}, {"measurement": "CR (complete response), patients", "setting": "[4]; PTCL, 28 treated/15 evaluable", "result": 3, "unit": "n"}, {"measurement": "DCR (CR + PR + SD)", "setting": "[4]; PTCL, 28 treated/15 evaluable", "result": 74, "unit": "%"}, {"measurement": "DCR (CR + PR + SD), patients", "setting": "[4]; PTCL, 28 treated/15 evaluable", "result": 10, "unit": "n"}, {"measurement": "PD (progressive disease)", "setting": "[4]; PTCL, 28 treated/15 evaluable", "result": 27, "unit": "%"}, {"measurement": "PD (progressive disease), patients", "setting": "[4]; PTCL, 28 treated/15 evaluable", "result": 4, "unit": "n"}, {"measurement": "PR (partial response)", "setting": "[4]; PTCL, 28 treated/15 evaluable", "result": "(27) %"}, {"measurement": "PR (partial response), patients", "setting": "[4]; PTCL, 28 treated/15 evaluable", "result": 4, "unit": "n"}, {"measurement": "ORR (objective response rate)", "setting": "[4]; PTCL, 28 treated/15 evaluable", "result": "(47) %"}, {"measurement": "ORR (objective response rate), patients", "setting": "[4]; PTCL, 28 treated/15 evaluable", "result": 7, "unit": "n"}]}]}
